Values joined by “and” are separate entries in the source; they are usually repeats but may differ in a detail not shown here. Equal values may be shown once. Read-outs that look alike come from different tables or passages of the source.
Legend:
[1] = test system: human immunodeficiency virus-1 (HIV-1); assay: anti-HIV MAGI assay; type: cell-based; details: anti-HIV
Description: (§1) We examined the inhibitory activities of DDPs against various species of bacteria (both gram-negative and gram-positive bacteria), fungi and viruses. […] In contrast, preliminary screening of the DDPs for anti-viral agents with hepatitis B virus (HBV), measles virus (MV), Epstein-Barr virus (EBV), herpes simplex virus (HSV) and human immunodeficiency virus-1 (HIV-1) indicated their selective inhibition of HIV.

MAGI cells = assay: cytotoxicity in the anti-HIV assay (CC50); type: cell-based
Description: as §1
Policy information about cell lines […]
HeLa-CD4-LTR/ !-galactosidase (MAGI) cells provided by Dr. J. Overbaugh through the NIH AIDS Research and Reference […]
MAGI cells were authenticated by the NIH.
Mycoplasma contamination All the cell lines tested negative for mycoplasma contamination.
Commonly misidentified lines No commonly mis-identified cell lines. […]

MCF-7 cells [2] = assay: mammosphere formation assay; type: cell-based, human; details: MCF-7, 5 μM, 7 days; for MFE (%) ave: mean of 3, control 0.87; for MFE (control = 1) ave: relative to control = 1; for MFE (%): single replicates
Procedure: We also evaluated antiproliferative activity against cancer stem cells (CSCs), which are a small sub-population in tumour bulk identified in most cancer cells and clinical samples[52]. CSCs have been a major problem in cancer therapy because they are responsible for recurrence, metastasis and drug resistance to chemotherapeutic agents that affect proliferative cells[53]–[56]. Anti-CSC activity was evaluated by the inhibition of sphere-forming ability, a well-studied method to enrich the CSC-like population, and selective cytotoxicity against one of the most reliable CSC markers, aldehyde dehydrogenase (ALDH)-positive cells. […] Low-toxicity 16 was also added as a negative control. […] We next evaluated the three DDPs that inhibited mammosphere formations against ALDH-positive cells, a functional marker for breast CSCs. MCF-7 cells were treated with 1 μM of 11, 12 or 22, and the ALDH-positive cell population was analysed by using a fluorescence activated cell sorter (Supplementary Fig. 46b). […] Thus, for the first time, we successfully found DDPs with potent antiproliferative effects on the CSC-like population in MCF-7 cells, which may lead to new anti-CSC drugs.
Fig. 5 DDPs show anti-CSC activity in breast cancer cell line MCF-7. a Effect of DDPs on mammosphere formation. After the cells were cultured in the presence of 5 μM DDPs for 7 days, the number of mammospheres was microscopically counted and the percentage of mammosphere-forming cells was determined as mammosphere-forming efficiency (MFE; %). Data represent mean ± s.d. from three independent replicate experiments. P-values were calculated by a two-sided unpaired Student’s t-test, compared with control. b Micrographs show representative images of mammosphere formation from three independent replicate experiments using compound 11, 12, 16, 22. The scale bar, […]. c Effect of DDPs (1 μM, 3 days) on ALDH-positive cells in MCF-7 cells. Data represent mean ± s.d. from three independent replicate experiments. P-values were calculated by a two-sided unpaired Student’s t-test, compared with control. d Dose-dependent effect of compound 12 on ALDH-positive cells in MCF-7 cells. Data represent mean ± s.d. from three independent replicate experiments. P-values were calculated by a two-sided unpaired Student’s t-test. Source data underlying Fig. 5a, c, d are provided in a Source Data file.

MCF-7 cells [3] = assay: cell cytotoxic effects against MCF-7 cells (72 h), A490; type: cell-based, human; details: MCF-7, 72 h; for viability at 0.1 µM / viability at 1 µM / viability at 10 µM: Homo sapiens, MCF7, 72 h, read-out: A490 (control =1) ave
Procedure: !" ' ' '! !" ' ' '! !" ' ' '!!" ' ' '!!" ' ' '!!" ' ' '!!" ' ' '!!" ' ' '! !" ' ' '! !" ' ' '! !" ' ' '! !"#$
( % ) * '! '' '# '+ '$ '( '%
! " # $ %& %% %' %( %) %! %"
!" ' ' '! !" ' ' '!!" ' ' '!!" ' ' '!!" ' ' '!!" ' ' '!!" ' ' '! !" ' ' '! !" ' ' '! !" ' ' '! !" ' ' '! […]
Supplementary Fig. 46. a, Cell cytotoxic effects of DDPs against MCF-7 cells (72 h).
dose dependent cytotoxic effects against MCF-7 cells were tested their inhibitory activity against mammosphere
formation. Compound in blue (16) was also performed mammosphere assay as negative control. Data represent
mean±s.d. from three independent replicate experiments. […]
Source data underlying Supplementary Figure 46a are provided in a Source Data file. […]

[4] = 0.1 µM (DMSO 0.002%), control 1.064
[5] = 1 µM (DMSO 0.02%), control 1.104
[6] = 10 µM (DMSO 0.2%), control 1.049

| Structure (SMILES) | MFE (%) ave (MCF-7 cells [2]) [%] | MFE (control = 1) ave (MCF-7 cells [2]) | MFE (%) (MCF-7 cells [2]) | viability at 0.1 µM (MCF-7 cells [3]; 0.1 µM (DMSO 0.002%)) [%] | viability at 1 µM (MCF-7 cells [3]; 1 µM (DMSO 0.02%)) [%] | viability at 10 µM (MCF-7 cells [3]; 10 µM (DMSO 0.2%)) [%] | A490 ave (MCF-7 cells [3]; [4]) | A490 ave (MCF-7 cells [3]; [5]) | A490 ave (MCF-7 cells [3]; [6]) | also measured |
| --- | --- | --- | --- | --- | --- | --- | --- | --- | --- | --- |
| CC(C)=CCCC1(C)OC1CC/C(C)=C/CC/C(C)=C/Cc1c(O)c(C)c(C)oc1=O (centres unmarked) [Compound 3] | – | – | – | – | – | – | – | – | – | EC50 ([1]; Human immunodeficiency virus 1, MAGI, single determinations, read-out: Efficacy (EC50)): > 10 µM |
| Cc1cn([C@H]2C[C@H](N=[N+]=[N-])[C@@H](CO)O2)c(=O)[nH]c1=O [AZT, reference compound] | – | – | – | – | – | – | – | – | – | EC50 ([1]; MAGI assay, read-out: EC50): 0.0297 µM; EC50 ([1]; average of numeric determinations, read-out: Avg. EC50): 0.0297 µM; CC50 (MAGI cells): > 10 µM; Cytotoxicity (MAGI cells): >10 µM |
| COc1cccc2c1C(=O)c1c(O)c3c(c(O)c1C2=O)C[C@@](O)(C(=O)CO)C[C@@H]3O[C@H]1C[C@H](N)[C@H](O)[C@H](C)O1 [Dox, doxorubicin, reference compound] | 0.58 | 0.67 | 0.68% and 0.52% and 0.54% | 82.9 | 47.4 | 21 | 0.882 | 0.523 | 0.220 | A490 (MCF-7 cells [3]; 10 µM (DMSO 0.2%), single replicates): 0.193 |
| O=c1[nH]cc(F)c(=O)[nH]1 [Compound 5-FU, 5-fluorouracil, reference compound] | 1.09 | 1.25 | 1.16% and 1.20% and 0.90% | 75.5 | 67.3 | 55.5 | 0.803 | 0.744 | 0.582 | – |
| Cc1oc(=O)cc(O)c1C [Compound 1] | – | – | – | – | – | – | – | – | – | EC50 ([1]; Human immunodeficiency virus 1, MAGI, average of numeric determinations, read-out: Avg. EC50): 0.076 µM; Cytotoxicity (MAGI cells; single determinations): >10 µM and 9.224 µM and 8.859 µM |
